BindingDB's records for doi:10.1021/jm100984y (The University of Queensland, 2010)

Target: T1, Proteinase-activated receptor 2 (Homo sapiens, UniProt P55085)
T1 sequence (P55085 whole entry): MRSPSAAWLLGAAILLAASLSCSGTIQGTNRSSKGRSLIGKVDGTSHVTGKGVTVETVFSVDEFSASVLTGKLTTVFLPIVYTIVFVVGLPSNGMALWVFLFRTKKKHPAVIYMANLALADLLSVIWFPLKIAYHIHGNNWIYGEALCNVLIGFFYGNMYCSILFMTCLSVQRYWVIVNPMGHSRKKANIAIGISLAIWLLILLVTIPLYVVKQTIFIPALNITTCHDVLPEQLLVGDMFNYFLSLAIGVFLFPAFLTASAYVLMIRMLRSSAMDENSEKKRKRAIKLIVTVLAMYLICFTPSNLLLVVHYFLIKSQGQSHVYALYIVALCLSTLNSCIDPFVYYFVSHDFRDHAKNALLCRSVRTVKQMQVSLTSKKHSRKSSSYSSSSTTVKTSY
Experiment: Agonist activity at PAR2 receptor in human HT-29 cells assessed as induction of intracellular calcium release

`CC[C@H](C)[C@H](NC(=O)[C@H](CC1CCCCC1)NC(=O)c1ccno1)C(=O)Nc1ccc(CC(=O)N2CCC(CN)CC2)cc1` [5-Isoxazoyl-Cha-Ile-4-aminophenyl-(4-[aminomethyl]piperidin-1-yl)ethan-2-one] showed an EC50 of 316 nM.
